What all share (type): in vivo
Data set [1] relates to Amaranthus retroflexus (pigweed, AMARE). Kind of data set: Greenhouse postemergence herbicidal effect, visual injury 20-22 d after spraying, pigweed (AMARE). The text has this: (§1) Seeds of the desired test plant species were planted in a 90:10% v/v (volume/volume) mixture of PRO-MIX® BX (Premier Tech Horticulture, Quakertown, Pa., USA) and PROFILE® GREENS GRADE™ (Profile Products LLC, Buffalo Grove, Ill., USA) planting mixture, which typically has a pH of 5.2 to 6.2 and an organic matter content of at least 50 percent, in plastic pots with a surface area of 103.2 square centimeters (cm^2). In some aspects, to ensure good germination and healthy plants, a fungicide treatment and/or other chemical or physical treatment was applied. The plants were grown for 7-36 days (d) in a greenhouse with an approximate 14-hour (h) photoperiod which was maintained at about 23° C. during the day and 22° C. during the night. Nutrients and water were added on a regular basis and supplemental lighting was provided with overhead metal halide 1000-Watt lamps as necessary. The plants were employed for testing when they reached the second or third true leaf stage.
(§2) Emulsifiable concentrates of each of each pyridine carboxylate herbicide (Compound A or Compound B) were prepared at 100 grams acid equivalent per liter (g ae/L). The emulsifiable concentrates also included a safener, cloquintocet-mexyl, at 120 grams active ingredient per liter (g ai/L). An aliquot of each emulsifiable concentrate was placed in a 25 mL glass vial and diluted with an aqueous mixture of 1.25% (v/v) ACTIROB® B esterified rapeseed oil (Bayer Crop Science, Research Triangle Park, N.C., USA) or MSO® Concentrate with LECI-TECH® methylated soybean oil (Loveland Products, Loveland, Colo., USA) to obtain concentrated stock solutions at the highest application rate for each herbicide, based upon a 12 milliliter (mL) application volume at a rate of 187 liters per hectare (L/ha). The concentrated stock solutions were further diluted with an aqueous mixture of 1.25% v/v ACTIROB® B or MSO® Concentrate with LECI-TECH® to obtain stock solutions at reduced application rates for each herbicide. Spray solutions of the herbicide combinations (Compound A or Compound B plus VLCFA synthesis inhibitor herbicide) were prepared by adding weighed amounts or aliquots of the VLCFA synthesis inhibitor herbicide to the stock solutions of Compound A or Compound B to form 12-mL spray solutions in two-way combinations.
(§3) The spray solutions were applied to the plant material with an overhead Mandel track sprayer equipped with 8002E nozzles calibrated to deliver 187 L/ha over an application area of 0.503 square meters (m^2) at a spray height of 18 inches ([…] (cm)) above the average plant canopy. Control plants were sprayed in the same manner with the solvent blank. All pyridine carboxylate herbicide (component a) application rates are given as “g ae/ha” and all VLCFA synthesis inhibitor herbicide (component b) application rates are given as “g ai/ha.”
(§4) The treated plants and control plants were placed in a greenhouse as described above and watered by sub-irrigation to prevent wash-off of the test compounds. After 20-22 d, the condition of the test plants as compared with that of the control plants was determined visually and scored on a scale of 0 to 100 percent where 0 corresponds to no injury and 100 corresponds to complete kill.

Data set [2] relates to Salsola kali (Russian thistle, SASKR). Kind of data set: Greenhouse postemergence herbicidal effect, visual injury 20-22 d after spraying, Russian thistle (SASKR). To be noted: SASKR.
Source text: as §1, §2, §3, §4

Data set [3] relates to Matricaria chamomilla (wild chamomile, MATCH). Kind of data set: Greenhouse postemergence herbicidal effect, visual injury 20-22 d after spraying, wild chamomile (MATCH). To be noted: MATCH.
Source text: as §1, §2, §3, §4

Data set [4] has as its system Cirsium arvense (Canadian thistle, CIRAR). Kind of data set: Greenhouse postemergence herbicidal effect, visual injury 20-22 d after spraying, Canadian thistle (CIRAR). To be noted: CIRAR.
Source text: as §1, §2, §3, §4

The subject of data set [5] is Brassica napus (spring rape, BRSNN). Kind of data set: Greenhouse postemergence herbicidal effect, visual injury 20-22 d after spraying, spring rape (BRSNN).
Source text: as §1, §2, §3, §4

Data set [6] has as its system Kochia scoparia (kochia, KCHSC). Kind of data set: Greenhouse postemergence herbicidal effect, visual injury 20-22 d after spraying, kochia (KCHSC). The following applies: KCHSC.
Source text: as §1, §2, §3, §4

In data set [7] the test system is Sinapis arvensis (wild mustard, SINAR). Description: Greenhouse postemergence herbicidal effect, visual injury 20-22 d after spraying, wild mustard (SINAR). To be noted: SINAR.
Source text: as §1, §2, §3, §4

Data set [8] has as its system Chenopodium album L. (common lambsquarters, CHEAL). Description: Greenhouse postemergence herbicidal effect, visual injury 20-22 d after spraying, common lambsquarters (CHEAL).
Source text: as §1, §2, §3, §4

Data set [9] relates to Polygonum convolvulus (wild buckwheat, POLCO). Description: Greenhouse postemergence herbicidal effect, visual injury 20-22 d after spraying, wild buckwheat (POLCO). To be noted: POLCO.
Source text: as §1, §2, §3, §4

Data set [10] concerns Hordeum vulgare (spring barley, HORVS). Kind of data set: Greenhouse postemergence crop phytotoxicity, visual injury 20-22 d after spraying, spring barley (HORVS). To be noted: HORVS.
Source text: as §1, §2, §3, §4

Data set [11] concerns Triticum aestivum (spring wheat, TRZAS). Description: Greenhouse postemergence crop phytotoxicity, visual injury 20-22 d after spraying, spring wheat (TRZAS). The following applies: TRZAS.
Source text: as §1, §2, §3, §4

Data set [12] deals with Brassica napus (winter rape, BRSNW). Description: Greenhouse postemergence herbicidal effect, visual injury 20-22 d after spraying, winter rape (BRSNW). To be noted: BRSNW.
Source text: as §1, §2, §3, §4

Experimental findings from patent US20210386068A1, “COMPOSITIONS COMPRISING PYRIDINE CARBOXYLATE HERBICIDES AND VERY LONG CHAIN FATTY ACID (VLCFA) SYNTHESIS INHIBITOR HERBICIDES” (priority 2018, published 2021) are described below.

With `COC[C@H](C)N(C(=O)CCl)c1c(C)csc1C` [Dimethenamid-P, (S)-2-chloro-N-(2,4-dimethyl-3-thienyl)-N-(2-methoxy-1-methyl-ethyl)acetamide], the “% visual injury Obs” value in [1] (Dimethenamid-P 560 g/ha alone) is 10%; in [2] (Dimethenamid-P 560 g/ha alone), 0%; in data set [3] (Dimethenamid-P 560 g/ha alone), 0%; in [4] (Dimethenamid-P 560 g/ha alone), 0%; in data set [5] (Dimethenamid-P 560 g/ha alone) it was 0%; in data set [6] (Dimethenamid-P 560 g/ha alone) it was 0%. For the same compound, the “% visual injury Obs” value in [7] (Dimethenamid-P 560 g/ha alone), in data set [8] (Dimethenamid-P 560 g/ha alone) and in data set [9] (Dimethenamid-P 560 g/ha alone) was 0% throughout.

In the case of `CCN(CC)C(=O)n1cnc(S(=O)(=O)c2c(C)cc(C)cc2C)n1` [Cafenstrole, N,N-diethyl-3-[(2,4,6-trimethylphenyl)sulfonyl]-1H-1,2,4-triazole-1-carboxamide], the “% visual injury Obs” value was determined as 0% in data set [2] (Cafenstrole 52.5 g/ha alone); 5% in [3] (Cafenstrole 52.5 g/ha alone); 5% in data set [5] (Cafenstrole 52.5 g/ha alone); 0% in [10] (Cafenstrole 52.5 g/ha alone); 5% in [6] (Cafenstrole 52.5 g/ha alone); 0% in data set [7] (Cafenstrole 52.5 g/ha alone). The entries for the “% visual injury Obs” value in data set [11] (Cafenstrole 52.5 g/ha alone), in [8] (Cafenstrole 52.5 g/ha alone) and in data set [9] (Cafenstrole 52.5 g/ha alone) were 0%, 0% and 5%, respectively.

Regarding `CN(C(=O)COc1nc2ccccc2s1)c1ccccc1` [Mefenacet, 2-(2-benzothiazolyloxy)-N-methyl-N-phenylacetamide], the “% visual injury Obs” value in data set [2] (Mefenacet 50 g/ha alone) was 0%; in data set [3] (Mefenacet 50 g/ha alone), 0%; in data set [5] (Mefenacet 50 g/ha alone), 5%; in data set [6] (Mefenacet 50 g/ha alone) it was 0%; in [7] (Mefenacet 50 g/ha alone), 0%; in [8] (Mefenacet 50 g/ha alone), 0%. Moreover, the “% visual injury Obs” value in data set [9] (Mefenacet 50 g/ha alone) was 0%.

Turning to S-Metolachlor, the “% visual injury Obs” value in data set [1] (S-Metolachlor 500 g/ha alone), in [2] (S-Metolachlor 500 g/ha alone), in [12] (S-Metolachlor 500 g/ha alone), in [3] (S-Metolachlor 500 g/ha alone), in data set [4] (S-Metolachlor 500 g/ha alone) and in data set [10] (S-Metolachlor 500 g/ha alone) was 0% throughout. Also, the “% visual injury Obs” value in [6] (S-Metolachlor 500 g/ha alone), in [7] (S-Metolachlor 500 g/ha alone), in data set [11] (S-Metolachlor 500 g/ha alone), in data set [8] (S-Metolachlor 500 g/ha alone) and in [9] (S-Metolachlor 500 g/ha alone) was 0% each time.

On to `CCN(C(=O)n1nnn(-c2ccccc2Cl)c1=O)C1CCCCC1` [Fentrazamide, 4-(2-chlorophenyl)-N-cyclohexyl-N-ethyl-4,5-dihydro-5-oxo-1H-tetrazole-1-carboxamide], for which the “% visual injury Obs” value in [1] (Fentrazamide 200 g/ha alone), in [2] (Fentrazamide 200 g/ha alone), in data set [12] (Fentrazamide 200 g/ha alone), in data set [3] (Fentrazamide 200 g/ha alone), in [4] (Fentrazamide 200 g/ha alone) and in data set [10] (Fentrazamide 200 g/ha alone) was 0% each time. Further, the “% visual injury Obs” value in data set [6] (Fentrazamide 200 g/ha alone) was 0%; in [7] (Fentrazamide 200 g/ha alone), 0%; in data set [11] (Fentrazamide 200 g/ha alone) it was 0%; in [8] (Fentrazamide 200 g/ha alone) it was 0%; in data set [9] (Fentrazamide 200 g/ha alone) it was 5%.

On to `CCOCCN(C(=O)CCl)C(=C(C)C)c1ccccc1` [Pethoxamid, 2-chloro-N-(2-ethoxyethyl)-N-(2-methyl-1-phenyl-1-propen-1-yl)acetamide], for which the “% visual injury Obs” value in data set [1] (Pethoxamid 600 g/ha alone), in data set [2] (Pethoxamid 600 g/ha alone), in data set [12] (Pethoxamid 600 g/ha alone), in [3] (Pethoxamid 600 g/ha alone), in data set [4] (Pethoxamid 600 g/ha alone) and in data set [10] (Pethoxamid 600 g/ha alone) was 0% in each case. Besides, the “% visual injury Obs” value in data set [6] (Pethoxamid 600 g/ha alone), in data set [7] (Pethoxamid 600 g/ha alone), in data set [11] (Pethoxamid 600 g/ha alone), in data set [8] (Pethoxamid 600 g/ha alone) and in data set [9] (Pethoxamid 600 g/ha alone) was 0% throughout.

For the compound `CCCCOCN(C(=O)CCl)c1c(CC)cccc1CC` [Butachlor, N-(butoxymethyl)-2-chloro-N-(2,6-diethylphenyl) acetamide], the “% visual injury Obs” value in [1] (Butachlor 450 g/ha alone) turned out to be 0%; in data set [2] (Butachlor 450 g/ha alone), 0%; in data set [12] (Butachlor 450 g/ha alone), 0%; in data set [3] (Butachlor 450 g/ha alone), 5%; in data set [4] (Butachlor 450 g/ha alone) it was 0%; in [6] (Butachlor 450 g/ha alone) it was 0%. The “% visual injury Obs” value in data set [7] (Butachlor 450 g/ha alone), in data set [8] (Butachlor 450 g/ha alone) and in data set [9] (Butachlor 450 g/ha alone) was 0% each time.

As to `Cn1nc(C(F)(F)F)c(CS(=O)(=O)C2=NOC(C)(C)C2)c1OC(F)F` [Pyroxasulfone, 3-[[[5-(difluoromethoxy)-1-methyl-3-(trifluoromethyl)-1H-pyrazol-4-yl]methyl]sulfonyl]-4,5-dihydro-5,5-dimethylisoxazole], the “% visual injury” value turned out to be 5% in data set [1] (Pyroxasulfone 100 g/ha alone); 10% in [2] (Pyroxasulfone 100 g/ha alone); 5% in [12] (Pyroxasulfone 100 g/ha alone); 0% in data set [3] (Pyroxasulfone 100 g/ha alone); 0% in [4] (Pyroxasulfone 100 g/ha alone); 0% in [6] (Pyroxasulfone 100 g/ha alone). Further, the entries for the “% visual injury” value in data set [7] (Pyroxasulfone 100 g/ha alone), in data set [8] (Pyroxasulfone 100 g/ha alone) and in data set [9] (Pyroxasulfone 100 g/ha alone) were 28%, 0% and 0%, respectively.
